# How the values were obtained:
# Assay type in all cases: cell-based
# [1] = test system: Leishmania donovani axenic amastigote; assay: In vitro assay for growth inhibition of Leishmania donovani axenic amastigote (Cell TiterGlo luminescence); settings: Leishmania donovani, L. donovani axenic amastigotes in vitro; read-out: L. donovani amastigotes EC50
# Procedure, shortened: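 Compound-treated wells received 9600 axenic amastigotes in RPMI 1640-based medium at pH 5.5 (37 °C, 5% CO2). Growth measured as ATP luminescence (CellTiter-Glo) after 2-day incubation; DMSO and reference compounds served as controls.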
# [2] = test system: L. donovani HU3 strain in mouse peritoneal macrophages; assay: Assay for inhibition of parasitemia of Leishmania donovani in mouse macrophages (SYBR Green nuclei count, high-content imaging); settings: Leishmania donovani, Peritoneal macrophage, L. donovani in mouse peritoneal macrophages; read-out: L. donovani in Mouse Macrophages EC50
# Procedure, shortened: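 Parasite numbers were counted from SYBR Green-stained nuclei imaged by high-content microscopy after paraformaldehyde fixation and Triton permeabilization. Before this, compound was applied for 5 days at 37° C to BALB/c peritoneal macrophages (2×10^4/well) that had been exposed 24 h to 4×10^5 L. donovani HU3 amastigotes harvested from infected mouse spleens.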
# [3] = test system: Trypanosoma brucei brucei (Lister 427) strain; assay: Assay for growth inhibition against Trypanosoma brucei brucei (Cell TiterGlo ATP luminescence); settings: Trypanosoma brucei, T. brucei brucei (Lister 427); read-out: T. Brucei (HAT) EC50
# Procedure, shortened: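 Growth read-out is cellular ATP by CellTiter-Glo luminescence, measured 30 min after reagent addition, following 2-day incubation at 37 °C in CO2. Parasites (10,000/mL, HMI-9 plus 10% FBS and 10% serum plus) faced 10 threefold dilutions in duplicate; IC50 taken as 50% growth inhibition versus untreated.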
# [4] = test system: Trypanosoma cruzi amastigotes cultured in 3T3 fibroblast cells; assay: Assay for growth inhibition of kinetoplastid parasite Trypanosoma cruzi (beta-galactosidase Tulahuen strain, CPRG readout); settings: Trypanosoma cruzi, Fibroblast, T. cruzi amastigotes in 3T3 fibroblast cells; read-out: Buckner infectious T. cruzi EC50
# Procedure, shortened: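 3T3 fibroblasts (1,000 cells/well) plated overnight, treated with compound in DMSO, then infected with 10,000 Lac-Z-expressing Tulahuen trypomastigotes. After 6 days, 0.6 mM CPRG with 0.6% NP-40 added for 2 h at room temperature; absorbance gives relative intracellular amastigote numbers. Benznidazole and nifurtimox serve as positive controls.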
SMILES,EC50 [1] [nM],EC50 [2] [nM],EC50 [3] [nM],EC50 [4] [nM]
"O=C(Nc1ccc(F)c(-n2cc3cc(N4CC(F)(F)C4)cnc3n2)c1)N1CC[C@@H](F)C1 [Compound 300, (3R)-N-{3-[5-(3,3-difluoroazetidin-1-yl)-2H-pyrazolo[3,4-b]pyridin-2-yl]-4-fluorophenyl}-3-fluoropyrrolidine-1-carboxamide]",22,6,3,4
"Cn1cnc(-c2cnc3nn(-c4cc(NC(=O)N5CC(F)C5)ccc4F)cc3c2)c1 [Compound 301, 3-fluoro-N-{4-fluoro-3-[5-(1-methyl-1H-imidazol-4-yl)-2H-pyrazolo[3,4-b]pyridin-2-yl]phenyl}azetidine-1-carboxamide]",73,97,8,472
"O=C(Nc1ccc(F)c(-n2cc3cc(N4CC(F)C4)cnc3n2)c1)N1CC[C@@H](F)C1 [Compound 302, (3R)-3-fluoro-N-{4-fluoro-3-[5-(3-fluoroazetidin-1-yl)-2H-pyrazolo[3,4-b]pyridin-2-yl]phenyl}pyrrolidine-1-carboxamide]",118,15,5,2
"O=C(Nc1ccc(F)c(-n2cc3cc(N4CC(F)C4)cnc3n2)c1)N1CC(F)(F)C1 [Compound 303, 3,3-difluoro-N-{4-fluoro-3-[5-(3-fluoroazetidin-1-yl)-2H-pyrazolo[3,4-b]pyridin-2-yl]phenyl}azetidine-1-carboxamide]",490,15,5,10
"Cn1cc(-c2cnc3nn(-c4cc(NC(=O)N5CC(F)C5)ccc4F)cc3c2)cn1 [Compound 304, 3-fluoro-N-{4-fluoro-3-[5-(1-methyl-1H-pyrazol-4-yl)-2H-pyrazolo[3,4-b]pyridin-2-yl]phenyl}azetidine-1-carboxamide]",4,3,5,30
"O=C(Nc1ccc(F)c(-n2cc3cc(C4CCN(Cc5ccc(F)cc5)CC4)cnc3n2)c1)N1CC(F)C1 [Compound 305, 3-fluoro-N-[4-fluoro-3-(5-{1-[(4-fluorophenyl)methyl]piperidin-4-yl]-2H-pyrazolo[3,4-b]pyridin-2-yl)phenyl]azetidine-1-carboxamide]",110,3,5,1
"[2H]C([2H])([2H])N(c1cnc2nn(-c3cc(NC(=O)N4CCC4)ccc3F)cc2c1)C([2H])([2H])[2H] [Compound 306, N-(3-{5-[bis(^2H3)methylamino]-2H-pyrazolo[3,4-b]pyridin-2-yl}-4-fluorophenyl)azetidine-1-carboxamide]",90,4,5,2
"[2H]C([2H])([2H])N(c1cnc2nn(-c3cc(NC(=O)N4CC(F)(F)C4)ccc3F)cc2c1)C([2H])([2H])[2H] [Compound 307, N-(3-{5-[bis(^2H3)methylamino]-2H-pyrazolo[3,4-b]pyridin-2-yl}-4-fluorophenyl)-3,3-difluoroazetidine-1-carboxamide]",281,12,5,16
"[2H]C([2H])([2H])N(c1cnc2nn(-c3cc(NC(=O)N4CC[C@@H](F)C4)ccc3F)cc2c1)C([2H])([2H])[2H] [Compound 308, (3R)-N-(3-{5-[bis(^2H3)methylamino]-2H-pyrazolo[3,4-b]pyridin-2-yl}-4-fluorophenyl)-3-fluoropyrrolidine-1-carboxamide]",568,2,5,4
"O=C(Nc1ccc(F)c(-n2cc3cc(-c4ncccc4F)cnc3n2)c1)N1CC(F)(F)C1 [Compound 309, 3,3-difluoro-N-{4-fluoro-3-[5-(3-fluoropyridin-2-yl)-2H-pyrazolo[3,4-b]pyridin-2-yl]phenyl}azetidine-1-carboxamide]",1,2,5,1

# Reference: patent US11384078B2, “5,6-fused-bicyclic compounds and compositions for the treatment of parasitic diseases” (NOVARTIS AG, priority 2017, dated 2022)
